# Reference: ChEMBL document CHEMBL6134874, “Identification of Nitric Oxide Donating Dasatinib Derivatives with Intraocular Pressure Lowering and Senolytic Activities” (J Med Chem, 2025)
# Activity calls are given as the source filed them. The calls are words filed in the database; no cut-off is given here.
# Test system: HTM
# Assay: Upregulation of NO level in HTM cells at 5 uM incubated for 12 hrs by DAF-FM DA fluorescent probe based flow cytometry analysis
# Assay type: functional, cell-based
# Conditions: Homo sapiens
row,Structure (SMILES),Activity
1,Cc1nc(Nc2ncc(C(=O)Nc3c(C)cccc3Cl)s2)cc(N2CCN(CCO[N+](=O)[O-])CC2)n1,Active
2,Cc1nc(Nc2ncc(C(=O)Nc3c(C)cccc3Cl)s2)cc(N2CCN(CCOC(=O)CCC(=O)OCCOCCOc3no[n+]([O-])c3S(=O)(=O)c3ccccc3)CC2)n1 [listing 1 of 2 here],Active

# Test system: HTM
# Assay: Upregulation of cGMP level in HTM cells at 5 uM incubated for 24 hrs by ELISA method
# Assay type: functional, cell-based
# Conditions: Homo sapiens
row,Structure (SMILES),Activity
1,Cc1nc(Nc2ncc(C(=O)Nc3c(C)cccc3Cl)s2)cc(N2CCN(CCOC(=O)CCC(=O)OCCOCCOc3no[n+]([O-])c3S(=O)(=O)c3ccccc3)CC2)n1 [listing 1 of 2 here],Active

# Test system: not listed separately
# Assay: Antiproliferative activity against mouse MEF cells assessed as inhibition of cell proliferation measured after 72 hrs by CCK-8 method
# Assay type: functional, cell-based
# Conditions: Mus musculus, MEF, 72 h
row,Structure (SMILES),IC50 [nM]
1,Cc1nc(Nc2ncc(C(=O)Nc3c(C)cccc3Cl)s2)cc(N2CCN(CCOC(=O)CCC(=O)OCCCCOc3no[n+]([O-])c3S(=O)(=O)c3ccccc3)CC2)n1,2350
2,Cc1nc(Nc2ncc(C(=O)Nc3c(C)cccc3Cl)s2)cc(N2CCN(CCO)CC2)n1 [DASATINIB ANHYDROUS],2850
3,Cc1nc(Nc2ncc(C(=O)Nc3c(C)cccc3Cl)s2)cc(N2CCN(CCOC(=O)CCC(=O)O[C@@H]3CO[C@H]4[C@@H]3OC[C@@H]4O[N+](=O)[O-])CC2)n1,330
4,Cc1nc(Nc2ncc(C(=O)Nc3c(C)cccc3Cl)s2)cc(N2CCN(CCOC(=O)CCC(=O)OCCOc3no[n+]([O-])c3C)CC2)n1,1340
5,Cc1nc(Nc2ncc(C(=O)Nc3c(C)cccc3Cl)s2)cc(N2CCN(CCOC(=O)CCC(=O)OCCOCCOc3no[n+]([O-])c3S(=O)(=O)c3ccccc3)CC2)n1 [listing 2 of 2 here],1100
6,Cc1nc(Nc2ncc(C(=O)Nc3c(C)cccc3Cl)s2)cc(N2CCN(CCO[N+](=O)[O-])CC2)n1,1530

# Test system: not listed separately
# Assay: Inhibition of senescence in mouse MEF cells measured after 72 hrs by CCK-8 method
# Assay type: functional, cell-based
# Conditions: Mus musculus, MEF, 72 h
row,Structure (SMILES),IC50 [nM]
1,Cc1nc(Nc2ncc(C(=O)Nc3c(C)cccc3Cl)s2)cc(N2CCN(CCOC(=O)CCC(=O)OCCCCOc3no[n+]([O-])c3S(=O)(=O)c3ccccc3)CC2)n1,1240
2,Cc1nc(Nc2ncc(C(=O)Nc3c(C)cccc3Cl)s2)cc(N2CCN(CCO)CC2)n1 [DASATINIB ANHYDROUS],510
3,Cc1nc(Nc2ncc(C(=O)Nc3c(C)cccc3Cl)s2)cc(N2CCN(CCOC(=O)CCC(=O)O[C@@H]3CO[C@H]4[C@@H]3OC[C@@H]4O[N+](=O)[O-])CC2)n1,540
4,Cc1nc(Nc2ncc(C(=O)Nc3c(C)cccc3Cl)s2)cc(N2CCN(CCOC(=O)CCC(=O)OCCOc3no[n+]([O-])c3C)CC2)n1,490
5,Cc1nc(Nc2ncc(C(=O)Nc3c(C)cccc3Cl)s2)cc(N2CCN(CCOC(=O)CCC(=O)OCCOCCOc3no[n+]([O-])c3S(=O)(=O)c3ccccc3)CC2)n1 [listing 2 of 2 here],480
6,Cc1nc(Nc2ncc(C(=O)Nc3c(C)cccc3Cl)s2)cc(N2CCN(CCO[N+](=O)[O-])CC2)n1,1190

# Test system: not listed separately
# Assay: Senolytics index ratio of IC50 for antiproliferative activity against mouse MEF cells to IC50 for inhibition of senescence in mouse MEF cells
# Assay type: functional
# Conditions: not given
row,Structure (SMILES),Ratio IC50
1,Cc1nc(Nc2ncc(C(=O)Nc3c(C)cccc3Cl)s2)cc(N2CCN(CCOC(=O)CCC(=O)OCCCCOc3no[n+]([O-])c3S(=O)(=O)c3ccccc3)CC2)n1,1.9
2,Cc1nc(Nc2ncc(C(=O)Nc3c(C)cccc3Cl)s2)cc(N2CCN(CCO)CC2)n1 [DASATINIB ANHYDROUS],5.55
3,Cc1nc(Nc2ncc(C(=O)Nc3c(C)cccc3Cl)s2)cc(N2CCN(CCOC(=O)CCC(=O)O[C@@H]3CO[C@H]4[C@@H]3OC[C@@H]4O[N+](=O)[O-])CC2)n1,0.61
4,Cc1nc(Nc2ncc(C(=O)Nc3c(C)cccc3Cl)s2)cc(N2CCN(CCOC(=O)CCC(=O)OCCOc3no[n+]([O-])c3C)CC2)n1,2.73
5,Cc1nc(Nc2ncc(C(=O)Nc3c(C)cccc3Cl)s2)cc(N2CCN(CCOC(=O)CCC(=O)OCCOCCOc3no[n+]([O-])c3S(=O)(=O)c3ccccc3)CC2)n1 [listing 2 of 2 here],2.28
6,Cc1nc(Nc2ncc(C(=O)Nc3c(C)cccc3Cl)s2)cc(N2CCN(CCO[N+](=O)[O-])CC2)n1,1.29

# Test system: HTM
# Assay: Anti-glaucoma activity in BLEO-induced senescence in HTM cells assessed as decrease in proportion of SA-beta-Gal positive cells at 5 uM measured for 48 hrs by senescence-associated galactosidase staining based microscopic analysis
# Assay type: functional, cell-based
# Conditions: Homo sapiens
row,Structure (SMILES),Activity
1,Cc1nc(Nc2ncc(C(=O)Nc3c(C)cccc3Cl)s2)cc(N2CCN(CCO)CC2)n1 [DASATINIB ANHYDROUS],Active
2,Cc1nc(Nc2ncc(C(=O)Nc3c(C)cccc3Cl)s2)cc(N2CCN(CCOC(=O)CCC(=O)OCCOCCOc3no[n+]([O-])c3S(=O)(=O)c3ccccc3)CC2)n1 [listing 1 of 2 here],Active

# Test system: not listed separately
# Assay: Toxicity in C57BL/6J mouse assessed as effect on discernible conjunctival hyperemia administered as 10 mM eye drop measured up to 4 hrs
# Conditions: in vivo, topical_or_ocular, 10000 µM
row,Structure (SMILES),Activity
1,Cc1nc(Nc2ncc(C(=O)Nc3c(C)cccc3Cl)s2)cc(N2CCN(CCO)CC2)n1 [DASATINIB ANHYDROUS],Non-toxic

# Test system: Mus musculus
# Assay: Anti-glaucoma activity against magnetic microbead-induced ocular hypertensive COHT C57BL/6J mouse model assessed as reduction in intraocular pressure administered as 10 mM eye drop measured after 2 to 4 hrs
# Assay type: functional, organism-based
# Conditions: time 2-4 hrs
row,Structure (SMILES),Activity
1,Cc1nc(Nc2ncc(C(=O)Nc3c(C)cccc3Cl)s2)cc(N2CCN(CCOC(=O)CCC(=O)OCCOCCOc3no[n+]([O-])c3S(=O)(=O)c3ccccc3)CC2)n1 [listing 1 of 2 here],Active

# Test system: Mus musculus
# Assay: Anti-glaucoma activity against magnetic microbead-induced ocular hypertensive COHT C57BL/6J mouse model assessed as reduction in intraocular pressure administered as 10 mM eye drop measured after 8 hrs
# Assay type: functional, organism-based
# Conditions: not given
row,Structure (SMILES),Activity
1,Cc1nc(Nc2ncc(C(=O)Nc3c(C)cccc3Cl)s2)cc(N2CCN(CCOC(=O)CCC(=O)OCCOCCOc3no[n+]([O-])c3S(=O)(=O)c3ccccc3)CC2)n1 [listing 1 of 2 here],inactive

# Test system: Mus musculus
# Assay: Anti-glaucoma activity against magnetic microbead-induced ocular hypertensive COHT C57BL/6J mouse model assessed as reduction in intraocular pressure administered as 10 mM eye drop measured after 2 to 8 hrs
# Assay type: functional, organism-based
# Conditions: time 2-8 hrs
row,Structure (SMILES),Activity
1,Cc1nc(Nc2ncc(C(=O)Nc3c(C)cccc3Cl)s2)cc(N2CCN(CCO)CC2)n1 [DASATINIB ANHYDROUS],inactive

# Test system: Mus musculus
# Assay: (§1) Anti-glaucoma activity against magnetic microbead-induced ocular hypertensive COHT C57BL/6J mouse model assessed as reduction in fraction of SA-beta-Gal positive area in retina at 10 mM administered eye drop thrice a day for 10 days by SA-beta Gal staining based […]
# Assay type: functional, organism-based
# Conditions: time 10.0 day
row,Structure (SMILES),Activity
1,Cc1nc(Nc2ncc(C(=O)Nc3c(C)cccc3Cl)s2)cc(N2CCN(CCO)CC2)n1 [DASATINIB ANHYDROUS],Active
2,Cc1nc(Nc2ncc(C(=O)Nc3c(C)cccc3Cl)s2)cc(N2CCN(CCOC(=O)CCC(=O)OCCOCCOc3no[n+]([O-])c3S(=O)(=O)c3ccccc3)CC2)n1 [listing 1 of 2 here],Active

# Test system: Mus musculus
# Assay: as §1, with “in number” for “in fraction”, “of SA-betaGal” for “of SA-beta-Gal”, “positive cells per unit” for “positive”, “area of whole flat-mount” for “area in”
# Assay type: functional, organism-based
# Conditions: time 10.0 day
row,Structure (SMILES),Activity
1,Cc1nc(Nc2ncc(C(=O)Nc3c(C)cccc3Cl)s2)cc(N2CCN(CCO)CC2)n1 [DASATINIB ANHYDROUS],Active
2,Cc1nc(Nc2ncc(C(=O)Nc3c(C)cccc3Cl)s2)cc(N2CCN(CCOC(=O)CCC(=O)OCCOCCOc3no[n+]([O-])c3S(=O)(=O)c3ccccc3)CC2)n1 [listing 1 of 2 here],Active

# Test system: Mus musculus
# Assay: Neuroprotective activity against magnetic microbead-induced ocular hypertensive COHT C57BL/6J mouse model assessed as protection effect on retinal ganglion cells (RGC) at 10 mM administered eye drop thrice a day for 10 days
# Assay type: functional, organism-based
# Conditions: time 10.0 day
row,Structure (SMILES),Activity
1,Cc1nc(Nc2ncc(C(=O)Nc3c(C)cccc3Cl)s2)cc(N2CCN(CCO)CC2)n1 [DASATINIB ANHYDROUS],Active
2,Cc1nc(Nc2ncc(C(=O)Nc3c(C)cccc3Cl)s2)cc(N2CCN(CCOC(=O)CCC(=O)OCCOCCOc3no[n+]([O-])c3S(=O)(=O)c3ccccc3)CC2)n1 [listing 1 of 2 here],Active; Compound Showed Significant Effect Than Dasatinib

# Test system: Mus musculus
# Assay: Neuroprotective activity against magnetic microbead-induced ocular hypertensive COHT C57BL/6J mouse model assessed as improvement in N1 wave amplitude at 10 mM administered eye drop thrice a day for 10 days […]
# Assay type: functional, organism-based
# Conditions: time 10.0 day
row,Structure (SMILES),Activity
1,Cc1nc(Nc2ncc(C(=O)Nc3c(C)cccc3Cl)s2)cc(N2CCN(CCO)CC2)n1 [DASATINIB ANHYDROUS],Active
2,Cc1nc(Nc2ncc(C(=O)Nc3c(C)cccc3Cl)s2)cc(N2CCN(CCOC(=O)CCC(=O)OCCOCCOc3no[n+]([O-])c3S(=O)(=O)c3ccccc3)CC2)n1 [listing 1 of 2 here],Active

# Test system: Mus musculus
# Assay: Neuroprotective activity against magnetic microbead-induced ocular hypertensive COHT C57BL/6J mouse model assessed as improvement in peak time of N1 wave at 10 mM administered eye drop thrice a day for 10 days […]
# Assay type: functional, organism-based
# Conditions: time 10.0 day
row,Structure (SMILES),Activity
1,Cc1nc(Nc2ncc(C(=O)Nc3c(C)cccc3Cl)s2)cc(N2CCN(CCO)CC2)n1 [DASATINIB ANHYDROUS],Active
2,Cc1nc(Nc2ncc(C(=O)Nc3c(C)cccc3Cl)s2)cc(N2CCN(CCOC(=O)CCC(=O)OCCOCCOc3no[n+]([O-])c3S(=O)(=O)c3ccccc3)CC2)n1 [listing 1 of 2 here],Active

# Test system: Mus musculus
# Assay: Neuroprotective activity against magnetic microbead-induced ocular hypertensive COHT C57BL/6J mouse model assessed as improvement in visual acuity of mouse at 10 mM administered eye drop thrice a day for 10 days by Optokinetic Reflex Assay
# Assay type: functional, organism-based
# Conditions: time 10.0 day
row,Structure (SMILES),Activity
1,Cc1nc(Nc2ncc(C(=O)Nc3c(C)cccc3Cl)s2)cc(N2CCN(CCO)CC2)n1 [DASATINIB ANHYDROUS],inactive
2,Cc1nc(Nc2ncc(C(=O)Nc3c(C)cccc3Cl)s2)cc(N2CCN(CCOC(=O)CCC(=O)OCCOCCOc3no[n+]([O-])c3S(=O)(=O)c3ccccc3)CC2)n1 [listing 1 of 2 here],Active

# Test system: Mus musculus
# Assay: Neuroprotective activity against magnetic microbead-induced ocular hypertensive COHT C57BL/6J mouse model assessed as increase in retinal ganglion cells (RGC) survival at 10 mM administered eye drop thrice a day for 10 days by immunofluorescence staining based analysis
# Assay type: functional, organism-based
# Conditions: time 10.0 day
row,Structure (SMILES),Activity
1,Cc1nc(Nc2ncc(C(=O)Nc3c(C)cccc3Cl)s2)cc(N2CCN(CCO)CC2)n1 [DASATINIB ANHYDROUS],Active
2,Cc1nc(Nc2ncc(C(=O)Nc3c(C)cccc3Cl)s2)cc(N2CCN(CCOC(=O)CCC(=O)OCCOCCOc3no[n+]([O-])c3S(=O)(=O)c3ccccc3)CC2)n1 [listing 1 of 2 here],Active; Compound Showed More Pronounced Effect Then Dasatinib
